Source: PMC3823594, “Conformational Changes Underlying Pore Dilation in the Cytoplasmic Domain of Mammalian Inward Rectifier K^+ Channels” (PLoS ONE, 2013)
Residue numbers refer to the chain shown, from its start.

Key:
Test in all cases: Two-electrode voltage clamp, ACh-dependent (m2R-dependent) K+ current activation
Type in all cases: cell-based
Kir3.2 E236G = target: T1, Kir3.2 E236G (Mus musculus, UniProt P48542, E236G); details: Kir3.2 E236G with porcine m2R in Xenopus oocytes; −120 mV; Hill equation fit
T1 sequence (P48542 19-425 E236G): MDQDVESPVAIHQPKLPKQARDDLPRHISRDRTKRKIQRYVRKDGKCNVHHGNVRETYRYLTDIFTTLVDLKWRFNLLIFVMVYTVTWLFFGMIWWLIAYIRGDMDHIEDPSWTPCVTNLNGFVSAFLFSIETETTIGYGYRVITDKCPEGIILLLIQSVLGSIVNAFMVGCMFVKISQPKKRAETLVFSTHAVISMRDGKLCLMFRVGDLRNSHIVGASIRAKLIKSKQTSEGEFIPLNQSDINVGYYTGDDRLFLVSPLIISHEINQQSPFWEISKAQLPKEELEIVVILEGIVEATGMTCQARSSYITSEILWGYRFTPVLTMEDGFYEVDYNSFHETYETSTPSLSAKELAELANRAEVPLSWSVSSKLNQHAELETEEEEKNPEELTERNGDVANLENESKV
T1 sequence (P06199 1-466 partner): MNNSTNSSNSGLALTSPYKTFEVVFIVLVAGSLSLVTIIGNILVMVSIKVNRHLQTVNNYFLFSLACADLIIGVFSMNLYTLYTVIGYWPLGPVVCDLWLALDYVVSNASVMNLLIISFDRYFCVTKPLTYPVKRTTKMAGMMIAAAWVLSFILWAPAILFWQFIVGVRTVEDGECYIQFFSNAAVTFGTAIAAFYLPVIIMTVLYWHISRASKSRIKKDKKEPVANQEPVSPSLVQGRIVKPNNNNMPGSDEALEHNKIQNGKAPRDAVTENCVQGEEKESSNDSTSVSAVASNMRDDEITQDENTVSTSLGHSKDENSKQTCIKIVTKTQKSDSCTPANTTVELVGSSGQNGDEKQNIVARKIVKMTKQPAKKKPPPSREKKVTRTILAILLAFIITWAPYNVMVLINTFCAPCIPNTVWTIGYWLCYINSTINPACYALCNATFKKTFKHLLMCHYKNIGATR
Description: (§1) The mouse Kir3.2d isoform was subjected to functional analyses. The amino acid numbers correspond to the longest mouse Kir3.2 isoform. Point mutations were introduced using the QuikChange site-directed mutagenesis kit (Stratagene, La Jolla, CA), and the presence of the mutations was confirmed by direct DNA sequencing. The care of Xenopus laevis was in accordance with the guideline of the Institute of Experimental Animal Sciences, Osaka University. The protocol was approved by the Animal Experiment Committee of Osaka University. The frogs were deeply anesthetized by immersing in 0.2% tricaine methanesulfonate for 20 min at 18°C. A portion of an ovary lobe was surgically removed and incubated with collagenase to remove follicular cells. The oocytes were injected with the cRNAs of Kir3.2 and porcine m2-muscarinic receptor (m2R), and maintained in modified Barth’s solution at 18°C with daily solution changes. Electrophysiological studies were undertaken 48–72 h later at room temperature (20–25°C). Two-electrode voltage-clamp recordings from oocytes were performed using a GeneClamp 500B amplifier (Axon Instruments, Sunnyvale, CA). […] The bath solution contained 40 mM KCl, 50 mM NaCl, 3 mM MgCl2, 0.15 mM niflumic acid, and 5 mM HEPES-KOH (pH 7.4). The currents were recorded in the absence or presence of various concentrations of acetylcholine (ACh). Ba^2+ (3 mM) was added at the end of the recording to estimate the endogenous leak current. The data are expressed as mean values ± standard error of the mean. For the quantitative estimation of ACh-dependent current responses of the wild-type (WT) and mutant channels, the current amplitudes at the end of test pulses at each ACh concentration ([ACh]) were fitted using the following equation:
(§2) I=min+[(max−min)/(1+(EC50/[ACh])^nH)]
(§3) where I is the current amplitude measured at the [ACh], n H is the Hill coefficient, and EC50 is the concentration that induces 50% of the maximal response. […] The values of n H and EC50 were calculated using a non-linear least-squares best fit (SigmaPlot 9; Systat Software). Statistical analyses were performed by one-way ANOVA with post-hoc tests.

Kir3.2 E236S = target: T2, Kir3.2 E236S (Mus musculus, UniProt P48542, E236S); details: Kir3.2 E236S with porcine m2R in Xenopus oocytes; −120 mV; Hill equation fit
T2 sequence (P48542 19-425 E236S): T1 sequence (P48542 19-425 E236G) with G218S
T2 sequence (P06199 1-466 partner): T1 sequence (P06199 1-466 partner)
Description: as §1, §2, §3

Kir3.2 M313A = target: T3, Kir3.2 M313A (Mus musculus, UniProt P48542, I313A); details: Kir3.2 M313A with porcine m2R in Xenopus oocytes; −120 mV; Hill equation fit
T3 sequence (P48542 19-425 I313A): T1 sequence (P48542 19-425 E236G) with G218E, I295A
T3 sequence (P06199 1-466 partner): T1 sequence (P06199 1-466 partner)
Description: as §1, §2, §3

For `CC(=O)OCC[N+](C)(C)C` [ACh, acetylcholine], the Hill coefficient (Kir3.2 E236G) was 1.10 ± 0.04, the Hill coefficient (Kir3.2 E236S) was 0.86 ± 0.07 and the Hill coefficient (Kir3.2 M313A) was 1.05 ± 0.08.
